This note sets out measurements from patent US9645136B2, “Methods of treating a meiotic kinesin-associated disease” (DANA-FARBER CANCER INSTITUTE, INC., priority 2008, dated 2017).

Test [1] concerns S2 cells. In words: Centrosome clustering defects in S2 cells after short drug treatment. In kind it is cell-based, Drosophila. The method, then: In addition to genes that likely contribute to the bundling and organization of spindle MTs, unexpectedly, genes involved in the organization and regulation of the actin cytoskeleton, such as the formin Form3/INF2 were also identified (Chhabra, E. S. and Higgs, H. N. (2006) J Biol Chem 281:26754-26767). […] Experiments using a brief (2 hr) treatment with small molecules that disrupt the actin cytoskeleton similarly induce multipolar mitoses.
More specifically, cells were treated with Latrunculin (40 μM LatA), Cytochalasin D (20 μM) for 2 hours and the percentage of centrosome clustering defects was determined.
Next, it was determined if cortical contraction is required for centrosome clustering. Cells were exposed, for 2 hours, to soluble tetravalent lectin concanavalin A (Con-A), which crosslinks the plasma membrane and thus globally blocks cortical contraction (Canman, J. C. and Bement, W. M. (1997) J Cell Sci 110 (Pt 16):1907-1917). The percentage of centrosome clustering defects after Con-A treatment was determined.
Low concentrations of calyculin A (CA) inhibit the myosin light chain phosphatase (MLCP) and promote myosin II activation without altering its distribution (Gupton, S. M. and Waterman-Storer, C. M. (2006) Cell 125:1361-1374). […] Thus, in cells with extra centrosomes, actin and actin-based contractility influence whether mitosis is bipolar or multipolar.
It was also determined whether the actin and intrinsic spindle forces act cooperatively to prevent multipolar mitoses. […] To farther evaluate this idea, time-lapse spinning disc microscopy was used to define the trajectory of centrosome movement in Ned-depleted S2 cells. […] Moreover, the bulk of the centrosome movement was directed away from the spindle and towards the cell cortex. […] Thus, cortical forces collaborate with intrinsic spindle bundling forces to organize multiple centrosomes.

For test [2], the system named is MDA-231 cells. In words: Multipolar spindles in MDA-231 cells. In kind it is cell-based. The method, then:
The parallel between Drosophila and mammalian cells extended to the genetic requirements for centrosome clustering. To examine this further, siRNA experiments were performed with mammalian HSET (Ned homolog) and Myo10 genes, as follows. Mixed pools (ON-TARGETplus and SMART pools) of 4 different oligos of siRNAs against human HSET, human Myo10 and mouse Myo10 were purchased from Dharmacon, siRNA against mouse HSET was purchased from Ambion. Non-specific scrambled siRNA was used as control (Ambion). The oligo sequence of the siRNAs are set forth below in Table 2:
Cells were transfected with Lipofectamine RNAiMAX (Invitrogen) with a final siRNA concentration of 50 nM according to the manufacturer's instructions. Cells were analyzed/harvested three days after transfection (unless specified otherwise). FIGS. 5 and 6 show the results of Western blots showing the depletion of HSET (FIG. 5) or Myo10 (FIG. 6) after three days of siRNA in MDA-231 and MCF-7 cells. FIG. 7 is a bar graph showing the percentage of cells with multipolar spindles in MCF-7 or MDA-231 cells upon treatment with siRNA of HSET or Myo10. […] As in S2 cells, Myo10-induced multipolarity is not a consequence of cytokinesis failure.
Several lines of evidence support this hypothesis. First, live-cell imaging was used to correlate interphase cell shape with the pattern of cell division during mitosis. MDA-231 (breast cancer cells containing extra centrosomes) that assumed an elongated or polarized shape in interphase, almost uniformly underwent bipolar divisions. […] Second, in tetraploid BSC-1 cells, whose thick RFs are readily visualized by DIC imaging, it was noted that a strong correlation between the positioning of the RFs and whether cells underwent a bipolar (bipolar distribution of RFs) or multipolar division (isotropic distribution of RFs). Third, RFs accumulate specific proteins, such as the ERM protein ezrin, which are implicated in cortical heterogeneity and thus local force generation on astral MTs. […]

Test [3] relates to MDA-231, MMEDX 4N and N1E-115. The experiment in a line: Multipolar spindles after transient actin or astral MT disruption, cell lines with multiple centrosomes. Format: cell-based. As for the experimental part: (§1) To determine the effect of transient actin disruption in mammalian cells, the cell lines MCF-7, MDA-231, MMEDX 4N and N1E-115 were treated with DMSO, LatA (5 μM) or Dihydrocytochalasin B (DCB) (10 μM) for 2 hours. The MCF-7 cell line contains 2 centrosomes whereas the other cell lines contain greater than 2 centrosomes. […] These multipolar spindles result from declustering of extra centrosomes and were not due to the splitting/fragmentation of centrioles. Actin presumably influences centrosome positioning via forces on astral MTs.

The test system of test [4] is S2 cells. In words: Live cell imaging of centrosome clustering in S2 cells. In kind it is cell-based, Drosophila. The method, then: Relative to controls (14.7±6.4 min), there was a 1.5 fold delay in centrosome clustering in 13/15 LatA-treated cells (22.1±12.3 min). […] The cell cycle delay induced by LatA treatment is likely due to activation of the SAC, as evidenced by prominent labeling of kinetochores with BubR1 in LatA-treated cells.

Test [5] relates to MCF-7. The experiment in a line: Multipolar spindles in cells with normal centrosome number. In kind it is cell-based. As to conditions: cells plated on FN 30 μg/ml. As for the experimental part: as §1
Cells were transfected with Lipofectamine RNAiMAX (Invitrogen) with a final siRNA concentration of 50 nM according to the manufacturer's instructions. Cells were analyzed/harvested three days after transfection (unless specified otherwise). FIGS. 5 and 6 show the results of Western blots showing the depletion of HSET (FIG. 5) or Myo10 (FIG. 6) after three days of siRNA in MDA-231 and MCF-7 cells. […]
Several lines of evidence support this hypothesis. […] Second, in tetraploid BSC-1 cells, whose thick RFs are readily visualized by DIC imaging, it was noted that a strong correlation between the positioning of the RFs and whether cells underwent a bipolar (bipolar distribution of RFs) or multipolar division (isotropic distribution of RFs). […]

[6] abbreviates: 2 hours, LatA 5 μM, DCB 10 μM, vs DMSO.

`COC[C@@H]([C@H](O)[C@H](O)C(=O)NCC[C@H](C)c1nc(/C=C/C[C@@H]2O[C@]3(C[C@@H](O)[C@@H]2C)O[C@H]([C@H](C[C@H](O)[C@H](C)[C@H](O)[C@H](C)/C=C(C)/C(C)=C/C=C/C(C)=C\C#N)OC)[C@H](OP(=O)(O)O)C3(C)C)co1)N(C)C` [CA, calyculin A]: the “centrosome clustering defect induced by Ned RNAi” value in test [1] (CA treatment of Ned RNAi cells) is given as “partially rescued”. The centrosome clustering defects in test [1] (wild type S2 cells, low concentration CA, 15% without) is listed as 9%. The “FN-induced increase of multipolar spindles” value in test [2] (CA added to cells plated on FN 30 μg/ml) was “reversed”.
With `C=C1[C@@H](C)[C@H]2[C@H](Cc3ccccc3)NC(=O)[C@]23OC(=O)CC[C@H](O)CCC[C@@H](C)C/C=C/[C@H]3[C@@H]1O` [Dihydrocytochalasin B], the “frequency of multipolar spindles” value in test [3] (setting [6]) is on record as “significant increase”.
As for `C/C1=C/C(=O)O[C@@H]2C[C@@H](CC[C@H](C)/C=C\C=C\CC1)O[C@@](O)([C@@H]1CSC(=O)N1)C2` [LatA, Latrunculin], in test [1] (LatA treatment in Ned or Bj1/RCC1-depleted cells), the spindle multipolarity entry is “combinatorial increase”. The “delay in centrosome clustering relative to controls” value in test [4] (13/15 LatA-treated cells) came out at 1.5 fold. Also, the “time of centrosome clustering” value in test [4] (13/15 LatA-treated cells, controls 14.7±6.4 min) stood at 22.1 ± 12.3 min. Also, in test [4] (LatA-treated cells), the “cells that completely failed to cluster extra centrosomes” value was 2/15. The “frequency of multipolar spindles” value in test [3] (setting [6]) is listed as “significant increase”.
With `CC(C)(C)n1nc(-c2ccc(Cl)cc2)c2c(N)ncnc21` [PP2], the multipolar spindles result in test [2] (src kinase inhibitor PP2) is “induced multipolar spindles”.
Turning to `COC(=O)Nc1nc2ccc(C(=O)c3cccs3)cc2[nH]1` [nocodazole], the “frequency of multipolar spindles” value in test [3] (low dose nocodazole, cells with extra centrosomes) was “increased the frequency of multipolar spindles”.
For concanavalin A [Con-A], in test [1] (2 hours treatment), the “centrosome clustering defects / multipolar mitoses” value is “induced centrosome clustering defects”.
For fibronectin [FN], the “frequency of multipolar spindles” value in test [5] is “not in MCF-7 cells”; in test [2] (cells plated on FN 30 μg/ml) it was “increased the frequency of multipolar spindles”.
